Test [1] deals with T1, IDO (Homo sapiens (Human), UniProt P14902). Description: Kynurenine assay in IFN-γ-stimulated Hela cells. The class given is cell-based. The conditions noted are these: 20 h, read-out: Hela Kyurenine (IC50). The procedure, abridged: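 Kynurenine in supernatant is read at 490 nm after Ehrlich reagent (10 min RT), following TCA stop and 30 min at 50° C hydrolysis. Before that, Hela cells in phenol red-free RPMI/10% FBS were co-treated 20 h at 37° C with 100 ng/mL IFN-γ and compound (30 μM top, 3-fold series to 1.5 nM).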
T1 sequence (P14902 whole entry): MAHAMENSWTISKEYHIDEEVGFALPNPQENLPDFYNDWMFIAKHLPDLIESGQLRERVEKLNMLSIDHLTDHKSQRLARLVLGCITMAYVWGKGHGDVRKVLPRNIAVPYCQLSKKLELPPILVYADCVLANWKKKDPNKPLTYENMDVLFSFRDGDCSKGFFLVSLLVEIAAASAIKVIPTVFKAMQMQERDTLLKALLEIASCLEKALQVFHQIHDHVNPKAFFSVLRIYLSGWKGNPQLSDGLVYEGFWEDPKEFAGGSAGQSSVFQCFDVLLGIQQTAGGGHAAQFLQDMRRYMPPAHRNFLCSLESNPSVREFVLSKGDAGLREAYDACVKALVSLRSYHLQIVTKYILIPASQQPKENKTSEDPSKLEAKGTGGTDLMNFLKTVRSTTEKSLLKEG

Test [2] addresses T1, IDO. Description: LLE_IDO_ABS_DR (IDO assay, method not described).

pIC50: −log10 of the molar value.

Regarding `COc1ccc(-c2ccc(Oc3ccccc3C3CC3)c(NC(=O)Nc3ccccc3C)c2)cc1C(=O)O` [Example 125, 4′-(2-cyclopropylphenoxy)-4-methoxy-3′-(3-o-tolylureido)biphenyl-3-carboxylic acid], the figures for the pIC50 on IDO [1] and against IDO [2] were 6.77 and 6.14, respectively.
Regarding `COc1ccc(-c2ccc(Oc3ccccc3C3CC3)c(NC(=O)Nc3cccc(C)c3)c2)cc1C(=O)O` [Example 126, 4′-(2-cyclopropylphenoxy)-4-methoxy-3′-(3-m-tolylureido)biphenyl-3-carboxylic acid], the figures for the negative logarithm of the IC50 (pIC50) at IDO [1] and on IDO [2] were 6.72 and 6.12, respectively.
On the same counts, the results for `COc1ccc(-c2ccc(Oc3cccc4ccccc34)c(NC(=O)Nc3ccccc3Cl)c2)cc1C(=O)O` [Example 128, 3′-(3-(2-chlorophenyl)ureido)-4-methoxy-4′-(naphthalen-1-yloxy)biphenyl-3-carboxylic acid] are 7.40 and 6.60.
On the same counts, the results for `COc1ccc(-c2ccc(Oc3cccc4ccccc34)c(NC(=O)Nc3cccc(C)c3)c2)cc1C(=O)O` [Example 130, 4-methoxy-4′-(naphthalen-1-yloxy)-3′-(3-m-tolylureido)biphenyl-3-carboxylic acid] are 6.92 and 6.32.
For `COc1ccc(-c2ccc(Oc3cccc4c3OC(C)(C)C4)c(NC(=O)Nc3ccccc3Cl)c2)cc1C(=O)O` [Example 133, 3′-(3-(2-chlorophenyl)ureido)-4′-(2,2-dimethyl-2,3-dihydrobenzofuran-7-yloxy)-4-methoxybiphenyl-3-carboxylic acid], the negative logarithm of the IC50 (pIC50) at IDO [1] is 6.23; against IDO [2], 5.74.
As for `COc1ccc(-c2ccc(Oc3cccc4c3OC(C)(C)C4)c(NC(=O)Nc3ccccc3C)c2)cc1C(=O)O` [Example 139, 4′-(2,2-dimethyl-2,3-dihydrobenzofuran-7-yloxy)-4-methoxy-3′-(3-o-tolylureido)biphenyl-3-carboxylic acid], the values for the negative logarithm of the IC50 (pIC50) at IDO [1] and against IDO [2] were 6.17 and 5.58, respectively.
For `COc1ccc(-c2ccc(Oc3cccc4c3OC(C)(C)C4)c(NC(=O)Nc3cccc(C)c3)c2)cc1C(=O)O` [Example 140, 4′-(2,2-dimethyl-2,3-dihydrobenzofuran-7-yloxy)-4-methoxy-3′-(3-m-tolylureido)biphenyl-3-carboxylic acid], the pIC50 at IDO [1] is 6.01; against IDO [2], 5.41.
Take `COc1ccc(-c2ccc(Oc3cccc4c3CCC4)c(NC(=O)Nc3cccc(C)c3)c2)cc1C(=O)O` [Example 144, 4′-(2,3-dihydro-1H-inden-4-yloxy)-4-methoxy-3′-(3-m-tolylureido)biphenyl-3-carboxylic acid]: the pIC50 is 6.82 at IDO [1] and 6.29 against IDO [2].
As to `COc1ccc(-c2ccc(Oc3ccc4c(c3)CCCC4)c(NC(=O)Nc3ccccc3C)c2)cc1C(=O)O` [Example 146, 4-methoxy-4′-(5,6,7,8-tetrahydronaphthalen-2-yloxy)-3′-(3-o-tolylureido)biphenyl-3-carboxylic acid], the pIC50 at IDO [1] is 6.57; on IDO [2] it was 6.24.
On the same counts, the results for `COc1ccc(-c2ccc(Oc3ccc4c(c3)CCCC4)c(NC(=O)Nc3cccc(C)c3)c2)cc1C(=O)O` [Example 147, 4-methoxy-4′-(5,6,7,8-tetrahydronaphthalen-2-yloxy)-3′-(3-m-tolylureido)biphenyl-3-carboxylic acid] are 6.34 and 5.88.
`COc1ccc(-c2ccc(Oc3cccc4c3CCCC4=O)c(NC(=O)Nc3ccccc3Cl)c2)cc1C(=O)O` [Example 149, 3′-(3-(2-chlorophenyl)ureido)-4-methoxy-4′-(5-oxo-5,6,7,8-tetrahydronaphthalen-1-yloxy)biphenyl-3-carboxylic acid]: the pIC50 at IDO [1] was 6.28; against IDO [2] it was 5.69.
With `COc1ccc(-c2ccc(Oc3cccc4c3CCCC4=O)c(NC(=O)Nc3ccccc3C)c2)cc1C(=O)O` [Example 150, 4-methoxy-4′-(5-oxo-5,6,7,8-tetrahydronaphthalen-1-yloxy)-3′-(3-o-tolylureido)biphenyl-3-carboxylic acid], the pIC50 on IDO [1] is 6.15; against IDO [2], 5.14.
For the compound `COc1ccc(-c2ccc(Oc3cccc4c3CCCC4)c(NC(=O)Nc3ccc(F)cc3F)c2)cc1C(=O)O` [Example 154, 3′-(3-(2,4-difluorophenyl)ureido)-4-methoxy-4′-(5,6,7,8-tetrahydronaphthalen-1-yloxy)biphenyl-3-carboxylic acid], the negative-log IC50 (pIC50) at IDO [1] was 6.85; against IDO [2], 6.27.
Regarding `Cc1ccccc1NC(=O)Nc1cc(-c2ccccc2C(=O)O)ccc1Oc1ccccc1C(C)(C)C` [Example 156, 4′-(2-tert-butylphenoxy)-3′-(3-o-tolylureido)biphenyl-2-carboxylic acid], the values for the pIC50 at IDO [1] and at IDO [2] were 6.19 and 6.17, respectively.
For `Cc1cccc(NC(=O)Nc2cc(-c3ccccc3C(=O)O)ccc2Oc2ccccc2C(C)(C)C)c1` [Example 157, 4′-(2-tert-butylphenoxy)-3′-(3-m-tolylureido)biphenyl-2-carboxylic acid], the values for the pIC50 on IDO [1] and against IDO [2] were 5.67 and 5.43, respectively.
For `CC(C)(C)c1ccccc1Oc1ccc(-c2ccc(Cl)cc2C(=O)O)cc1NC(=O)Nc1ccccc1Cl` [Example 158, 4′-(2-tert-butylphenoxy)-4-chloro-3′-(3-(2-chlorophenyl)ureido)biphenyl-2-carboxylic acid], the pIC50 on IDO [1] is 6.07; against IDO [2] it was 5.39.
Take `Cc1ccccc1NC(=O)Nc1cc(-c2ccc(Cl)cc2C(=O)O)ccc1Oc1ccccc1C(C)(C)C` [Example 159, 4′-(2-tert-butylphenoxy)-4-chloro-3′-(3-o-tolylureido)biphenyl-2-carboxylic acid]: the pIC50 is 6.06 on IDO [1] and 5.46 at IDO [2].
With `Cc1ccc(NC(=O)Nc2cc(-c3ccc(Cl)cc3C(=O)O)ccc2Oc2ccccc2C(C)(C)C)cc1` [Example 161, 4′-(2-tert-butylphenoxy)-4-chloro-3′-(3-p-tolylureido)biphenyl-2-carboxylic acid], the pIC50 on IDO [1] is 7.30; against IDO [2] it was 6.62.
For `COc1ccc(-c2ccc(Oc3ccccc3C(C)(C)C)c(NC(=O)Nc3ccccc3C)c2)c(C(=O)O)c1` [Example 162, 4′-(2-tert-butylphenoxy)-4-methoxy-3′-(3-o-tolylureido)biphenyl-2-carboxylic acid] the same measures were 5.90 and 5.65.
For the compound `COc1ccc(-c2ccc(Oc3ccccc3C(C)(C)C)c(NC(=O)Nc3ccc(C)cc3)c2)c(C(=O)O)c1` [Example 163, 4′-(2-tert-butylphenoxy)-4-methoxy-3′-(3-p-tolylureido)biphenyl-2-carboxylic acid], the figures for the negative-log IC50 (pIC50) at IDO [1] and against IDO [2] were 6.80 and 6.33, respectively.
On the same counts, the results for `COc1ccc(-c2ccc(Oc3ccccc3C(C)(C)C)c(NC(=O)Nc3ccccc3Cl)c2)c(C(=O)O)c1` [Example 164, 4′-(2-tert-butylphenoxy)-3′-(3-(2-chlorophenyl)ureido)-4-methoxybiphenyl-2-carboxylic acid] are 6.55 and 6.48.
On the same counts, the results for `COc1cc(C(=O)O)c(-c2ccc(Oc3ccccc3C(C)(C)C)c(NC(=O)Nc3ccc(C)cc3)c2)cc1OC` [Example 165, 4′-(2-tert-butylphenoxy)-4,5-dimethoxy-3′-(3-p-tolylureido)biphenyl-2-carboxylic acid] are 6.41 and 6.34.
On the same counts, the results for `CC(C)(C)c1ccccc1Oc1ccc(-c2cc(Cl)ccc2C(=O)O)cc1NC(=O)Nc1ccccc1Cl` [Example 166, 4′-(2-tert-butylphenoxy)-5-chloro-3′-(3-(2-chlorophenyl)ureido)biphenyl-2-carboxylic acid] are 5.89 and 5.44.
Consider `Cc1ccccc1NC(=O)Nc1cc(-c2cc(Cl)ccc2C(=O)O)ccc1Oc1ccccc1C(C)(C)C` [Example 167, 4′-(2-tert-butylphenoxy)-5-chloro-3′-(3-o-tolylureido)biphenyl-2-carboxylic acid], for which the values for the negative logarithm of the IC50 (pIC50) at IDO [1] and against IDO [2] were 5.78 and 5.42, respectively.
On the same counts, the results for `Cc1ccc(NC(=O)Nc2cc(-c3cc(Cl)ccc3C(=O)O)ccc2Oc2ccccc2C(C)(C)C)cc1` [Example 168, 4′-(2-tert-butylphenoxy)-5-chloro-3′-(3-p-tolylureido)biphenyl-2-carboxylic acid] are 6.62 and 6.18.
For `CC(C)(C)c1ccccc1Oc1ccc(-c2ccc(F)cc2C(=O)O)cc1NC(=O)Nc1ccccc1Cl` [Example 169, 4′-(2-tert-butylphenoxy)-3′-(3-(2-chlorophenyl)ureido)-4-fluorobiphenyl-2-carboxylic acid] the same measures were 6.18 and 5.63.
On the same counts, the results for `Cc1ccc(NC(=O)Nc2cc(-c3ccc(F)cc3C(=O)O)ccc2Oc2ccccc2C(C)(C)C)cc1` [Example 170, 4′-(2-tert-butylphenoxy)-4-fluoro-3′-(3-p-tolylureido)biphenyl-2-carboxylic acid] are 6.09 and 5.65.
`Cc1ccc(NC(=O)Nc2cc(-c3cccc(F)c3C(=O)O)ccc2Oc2ccccc2C(C)(C)C)cc1` [Example 171, 4′-(2-tert-butylphenoxy)-3-fluoro-3′-(3-p-tolylureido)biphenyl-2-carboxylic acid]: the pIC50 on IDO [1] is 7.05; at IDO [2], 6.51.
Take `CC(C)(C)c1ccccc1Oc1ccc(-c2cccc(Cl)c2C(=O)O)cc1NC(=O)Nc1ccccc1Cl` [Example 172, 4′-(2-tert-butylphenoxy)-3-chloro-3′-(3-(2-chlorophenyl)ureido)biphenyl-2-carboxylic acid]: the figures for the negative logarithm of the IC50 (pIC50) on IDO [1] and on IDO [2] were 5.89 and 5.72, respectively.
On the same counts, the results for `Cc1ccccc1NC(=O)Nc1cc(-c2cccc(Cl)c2C(=O)O)ccc1Oc1ccccc1C(C)(C)C` [Example 173, 4′-(2-tert-butylphenoxy)-3-chloro-3′-(3-o-tolylureido)biphenyl-2-carboxylic acid] are 5.79 and 5.51.

For the origin of these results see patent publication US9765018B2, “IDO inhibitors” (BRISTOL-MYERS SQUIBB COMPANY, priority 2013, dated 2017).
